Measurements published in US20260070929A1, “METHODS AND COMPOSITIONS FOR MODULATING KRAS(G12D)” (Ranok Therapeutics (Hangzhou) Co. LTD., priority 2022, published 2026).
Read-outs that look alike come from different tables or passages of the source.

Tests used:
[1] = test system: AGS gastric carcinoma cells [heterozygous G12D]; assay: Cancer cell line proliferation (CellTiter-Glo), AGS; type: cell-based; conditions: 72 hr treatment, read-out: AGS CTG (EC50)
Description: (§1) The following cancer cell lines were employed: AGS gastric carcinoma [heterozygous G12D](ATCC, CRL-1739); A-427 lung carcinoma [heterozygous G12D](ATCC, HTB-53); ASPC1 pancreatic adenocarcinoma [homozygous G12D](ATCC, CRL-1682) and SW1990 pancreatic adenocarcinoma [homozygous G12D](ATCC CRL-2172). Cell lines were cultured essentially according to ATCC recommendations.
(§2) AGS, A-427, ASPC1, SW1990, and GP2D cells were plated in 96-well tissue culture plates at 4,000 cells/well and incubated at 37° C./5% CO2 for 72 hr in 100 μl of media. 3-fold serial dilutions of each test compound were prepared ranging from 20 μM to 1.02 nM. Each cell line was then treated with test compounds at various concentrations with a final concentration of 0.5% DMSO/well, and then incubated at 37° C./5% CO2 for 72 hr. 100 µl of CellTiter-Glo® Reagent (Promega Corporation, Madison, WI) was added to each well and processed according manufacturer's protocol. Results were analyzed and EC50 values were calculated in GraphPad 7 software.

[2] = test system: A-427 lung carcinoma cells [heterozygous G12D]; assay: Cancer cell line proliferation (CellTiter-Glo), A-427; type: cell-based; conditions: A-427 cells, 72 hr treatment, read-out: A427 CTG (EC50)
Description: as §1, §2

[3] = test system: ASPC1 pancreatic adenocarcinoma cells [homozygous G12D]; assay: Cancer cell line proliferation (CellTiter-Glo), ASPC1; type: cell-based; conditions: 72 hr treatment, read-out: ASPC-1 CTG (EC50)
Description: as §1, §2

KRAS(G12D)/SOS1 = target: T1, KRAS(G12D)/SOS1 (Homo sapiens, UniProt P01116, G12D); assay: KRAS(G12D)/SOS1 homogeneous time-resolved fluorescence (HTRF) assay; type: binding; conditions: absence of GTP; 4° C., 3 hr
T1 construct: purchased Cisbio 63ADK000CB17PEH
Description: Binding of test compounds to KRAS(G12D) target protein, which in turn blocks KRAS(G12D) interaction with the SOS1 protein, was measured in the absences of GTP by homogeneous time-resolved fluorescence using the KRAS-G12D/SOS1 Binding Assay Kit (Cisbio, 63ADK000CB17PEH), following the manufacturer's instructions, except as noted. 3-fold serial dilutions of each test compound were prepared ranging from 20 µM to 1.02 nM. The test compound was mixed and incubated with reaction components, incubated in a sealed plate at 4° C. for 3 hr and fluorescence was measured using a PerkinElmer Envision plate reader. The KRAS(G12D)-SOS1 IC50 values (the concentration of 50% of the maximal inhibition) were calculated using GraphPad Prism 7 software.

T1 sequence (P01116 1-188 isoform P01116-2 G12D): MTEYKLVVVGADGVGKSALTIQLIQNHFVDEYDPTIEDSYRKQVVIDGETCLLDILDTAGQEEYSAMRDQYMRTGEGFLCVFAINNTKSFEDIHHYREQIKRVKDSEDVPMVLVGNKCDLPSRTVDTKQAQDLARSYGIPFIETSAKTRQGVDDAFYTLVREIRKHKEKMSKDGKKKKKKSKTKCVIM

| Compound | EC50 ([1]; Homo sapiens) [nM] | EC50 ([2]; Homo sapiens) [nM] | EC50 ([3]; Homo sapiens, ASPC1, 72 h) [nM] | IC50 (KRAS(G12D)/SOS1) [nM] | EC50 [1] [nM] | EC50 [2] [nM] | EC50 [3] [nM] |
| --- | --- | --- | --- | --- | --- | --- | --- |
| C#Cc1cccc2cc(O)cc(-c3ncc4c(N5CC6CCC(C5)N6)nc(OCC5(CN6CC[C@H](C(=O)N7CCN(Cc8ccc9c(c8)CN(C(=O)c8cc(C(C)C)c(O)cc8O)C9)CC7)C6)CC5)nc4c3F)c12 [Compound 139] | 100 to 1000 | 100 to 1000 | > 1000 | < 100 | – | – | – |
| CCNC(=O)c1nnc(-c2cc(C(C)C)c(O)cc2O)n1-c1ccc(CN2CCN([C@H]3C[C@@H](COc4nc(N5CC6CCC(C5)N6)c5cnc(-c6cc(O)cc7ccccc67)c(F)c5n4)N(C)C3)CC2)cc1 [Compound 31] | 100 to 1000 | 100 to 1000 | > 1000 | < 100 | – | – | – |
| C#Cc1cccc2cc(O)cc(-c3ncc4c(N5CC6CNC(C6)C5)nc(OCC5(CN6CCN(CC7CCN(Cc8ccc(-n9c(C(=O)NCC(F)(F)F)nnc9-c9cc(C(C)C)c(O)cc9O)cc8)CC7)CC6)CC5)nc4c3F)c12 (stereo not shown) [Compound 135] | 100 to 1000 | 100 to 1000 | 100 to 1000 | < 100 | – | – | – |
| CC(C)c1cc(C(=O)N2Cc3ccc(CN4CCC(C(=O)N(C)[C@H]5CN6CCC[C@]6(COc6nc(N7CC8CCC(C7)N8)c7cnc(-c8cc(O)cc9ccccc89)c(F)c7n6)C5)CC4)cc3C2)c(O)cc1O [Compound 50] | 100 to 1000 | 100 to 1000 | 100 to 1000 | < 100 | – | – | – |
| C#Cc1cccc2cccc(-c3ncc4c(N5CC6CCC(C5)N6)nc(OC[C@@H]5CC[C@H](CN6CCN(Cc7ccc(-n8c(C(=O)NCC)nnc8-c8cc(C(C)C)c(O)cc8O)cc7)CC6)N5C)nc4c3F)c12 [Compound 16] | < 100 | < 100 | 100 to 1000 | < 100 | – | – | – |
| C#Cc1cccc2cccc(-c3ncc4c(N5CC6CCC(C5)N6)nc(OCCN5CCN(C(=O)C6CCN(Cc7ccc(-n8c(C(=O)NCC)nnc8-c8cc(C(C)C)c(O)cc8O)cc7)CC6)CC5)nc4c3F)c12 [Compound 21] | < 100 | 100 to 1000 | > 1000 | 100 to 1000 | – | – | – |
| C#Cc1cccc2cccc(-c3ncc4c(N5CC6CCC(C5)N6)nc(OC[C@@H]5C[C@H](N6CCN(Cc7ccc(-n8c(C(=O)NCC)nnc8-c8cc(C(C)C)c(O)cc8O)cc7)CC6)CN5C)nc4c3F)c12 [Compound 36] | < 100 | 100 to 1000 | 100 to 1000 | < 100 | – | – | – |
| CC(C)c1cc(C(=O)N2Cc3ccc(CN(C)[C@H]4CN5CCC[C@]5(COc5nc(N6CC7CCC(C6)N7)c6cnc(-c7cc(O)cc8ccccc78)c(F)c6n5)C4)cc3C2)c(O)cc1O [Compound 45] | 100 to 1000 | 100 to 1000 | > 1000 | 100 to 1000 | – | – | – |
| C#Cc1cccc2cccc(-c3ncc4c(N5CC6CCC(C5)N6)nc(OC[C@@H]5CC[C@H](CN6CCN(C(=O)C7CCN(Cc8ccc(-n9c(C(=O)NCC)nnc9-c9cc(C(C)C)c(O)cc9O)cc8)CC7)CC6)N5C)nc4c3F)c12 [Compound 28] | < 100 | < 100 | 100 to 1000 | < 100 | – | – | – |
| C#Cc1cccc2cccc(-c3ncc4c(N5CC6CCC(C5)N6)nc(OCC5(CN6CCN(Cc7ccc(-n8c(O)nnc8-c8cc(C(C)C)c(O)cc8O)cc7)CC6)CC5)nc4c3F)c12 [Compound 10] | 100 to 1000 | 100 to 1000 | > 1000 | < 100 | – | – | – |
| C#Cc1cccc2cc(O)cc(-c3ncc4c(N5CC6CNC(C6)C5)nc(OCC5(CN6CCN(CC7CCN(C(=O)C8CCN(Cc9ccc%10c(c9)CN(C(=O)c9cc(C(C)C)c(O)cc9O)C%10)CC8)CC7)CC6)CC5)nc4c3F)c12 (stereo not shown) [Compound 136] | 100 to 1000 | 100 to 1000 | > 1000 | 100 to 1000 | – | – | – |
| CC(C)c1cc(-c2nnc(O)n2-c2ccc(CN(C)[C@@H]3CN4CCC[C@]4(COc4nc(N5CC6CCC(C5)N6)c5cnc(-c6cc(O)cc7ccccc67)c(F)c5n4)C3)cc2)c(O)cc1O [Compound 43] | – | – | – | < 100 | > 1000 | > 1000 | > 1000 |
| C#Cc1cccc2cccc(-c3ncc4c(N5CC6CCC(C5)N6)nc(OC[C@@H]5CC[C@H](CN6CCN(Cc7ccc8c(c7)CN(C(=O)c7cc(C(C)C)c(O)cc7O)C8)CC6)N5C)nc4c3F)c12 [Compound 39] | 100 to 1000 | 100 to 1000 | > 1000 | < 100 | – | – | – |
| C#Cc1cccc2cccc(-c3ncc4c(N5CC6CCC(C5)N6)nc(OCCN5CCN(Cc6ccc(-n7c(C(=O)NCC)nnc7-c7cc(C(C)C)c(O)cc7O)cc6)CC5)nc4c3F)c12 [Compound 17] | < 100 | < 100 | 100 to 1000 | < 100 | – | – | – |
| CC(C)c1cc(-c2nnc(O)n2-c2ccc(CN3CCN(C(=O)C4CCN([C@H]5C[C@@H](COc6nc(N7CC8CCC(C7)N8)c7cnc(-c8cccc9cccc(Cl)c89)cc7n6)N(C)C5)CC4)CC3)cc2)c(O)cc1O [Compound 4] | – | – | > 1000 | 100 to 1000 | – | – | – |
| Cc1cccc2cccc(-c3ncc4c(N5CC6CCC(C5)N6)nc(OC[C@@H]5CC[C@H](CN6CCN(C(=O)C7CCN(Cc8ccc9c(c8)CN(C(=O)c8cc(C(C)C)c(O)cc8O)C9)CC7)CC6)N5C)nc4c3F)c12 [Compound 94] | 100 to 1000 | 100 to 1000 | – | 100 to 1000 | – | – | – |
| CC(C)c1cc(C(=O)N2Cc3ccc(CN4CCC(C(=O)N5CCN([C@H]6C[C@@H](COc7nc(N8CC9CCC(C8)N9)c8cnc(-c9cccc%10cccc(F)c9%10)c(F)c8n7)N(C)C6)CC5)CC4)cc3C2)c(O)cc1O [Compound 92] | 100 to 1000 | 100 to 1000 | – | 100 to 1000 | – | – | – |
| CCNC(=O)c1nnc(-c2cc(C(C)C)c(O)cc2O)n1-c1ccc(CN2CCN(C[C@H]3C[C@@H](COc4nc(N5CC6CCC(C5)N6)c5cnc(-c6cc(O)cc7ccccc67)c(F)c5n4)N(C)C3)CC2)cc1 [Compound 95] | < 100 | 100 to 1000 | – | < 100 | – | – | – |
| CC(C)c1cc(-c2nnc(O)n2-c2ccc(CN3CCN(C(=O)C4CCN([C@H]5C[C@@H](COc6nc(N7CC8CCC(C7)N8)c7cnc(-c8cccc9cccc(Cl)c89)c(F)c7n6)N(C)C5)CC4)CC3)cc2)c(O)cc1O [Compound 5] | – | > 1000 | > 1000 | < 100 | – | – | – |
| C#Cc1cccc2cc(O)cc(-c3ncc4c(N5CC6CCC(C5)N6)nc(OC[C@@H]5C[C@H](N6CCN(Cc7ccc(-n8c(C(=O)NCC)nnc8-c8cc(C(C)C)c(O)cc8O)cc7)CC6)CN5C)nc4c3F)c12 [Compound 96] | 100 to 1000 | 100 to 1000 | – | < 100 | – | – | – |
| CC(C)c1cc(C(=O)N2Cc3ccc(CN4CCN([C@H]5C[C@@H](COc6nc(N7CC8CNC(C8)C7)c7cnc(-c8cc(O)cc9ccccc89)c(F)c7n6)N(C)C5)CC4)cc3C2)c(O)cc1O (stereo partly shown) [Compound 74] | 100 to 1000 | 100 to 1000 | – | > 1000 | – | – | – |
| CCc1cc(-c2nnc(C(=O)NCC(F)(F)F)n2-c2ccc(CN3CCN([C@H]4C[C@@H](COc5nc(N6CC7CCC(C6)N7)c6cnc(-c7cccc(C)c7C)c(F)c6n5)N(C)C4)CC3)cc2)c(O)cc1O [Compound 81] | 100 to 1000 | 100 to 1000 | – | > 1000 | – | – | – |
| CCc1cc(-c2nnc(C(=O)NCC(F)(F)F)n2-c2ccc(CN3CCN(C[C@H]4CC[C@@H](COc5nc(N6CC7CCC(C6)N7)c6cnc(-c7cccc8cccc(C)c78)c(F)c6n5)N4C)CC3)cc2)c(O)cc1O [Compound 108] | 100 to 1000 | 100 to 1000 | – | 100 to 1000 | – | – | – |
